Assays:
Assay in all cases: relative viability (nuclei count vs DMSO), 5 days (fraction); higher = more cells survive
Alisertib + Dasatinib = compound: COc1cc(Nc2ncc3c(n2)-c2ccc(Cl)cc2C(c2c(F)cccc2OC)=NC3)ccc1C(=O)O [Alisertib] + Cc1nc(Nc2ncc(C(=O)Nc3c(C)cccc3Cl)s2)cc(N2CCN(CCO)CC2)n1 [Dasatinib] (partner 0.075 µM)
Method in brief: (§1)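 After 5 days of treatment, lung cancer cells in 1536-well plates were fixed and stained in a single step (final 0.05% Triton X-100, 1% formaldehyde, 1 ug/ml Hoechst) and their nuclei counted on 4× images. Treatment had been applied by pin tool the day after seeding as one drug alone or as a fixed anchor-drug dose with five library-drug doses (not always all listed) in √10 steps. Relative viability is the nuclei count of treated wells divided by that of vehicle wells, and values are medians of duplicate plates.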

Alisertib + Alpelisib = compound: COc1cc(Nc2ncc3c(n2)-c2ccc(Cl)cc2C(c2c(F)cccc2OC)=NC3)ccc1C(=O)O [Alisertib] + Cc1nc(NC(=O)N2CCC[C@H]2C(N)=O)sc1-c1ccnc(C(C)(C)C(F)(F)F)c1 [Alpelisib] (partner 2 µM)
Method in brief: as §1

Alisertib + Bortezomib = compound: COc1cc(Nc2ncc3c(n2)-c2ccc(Cl)cc2C(c2c(F)cccc2OC)=NC3)ccc1C(=O)O [Alisertib] + CC(C)C[C@H](NC(=O)[C@H](Cc1ccccc1)NC(=O)c1cnccn1)B(O)O [Bortezomib] (partner 0.002 µM)
Method in brief: as §1

Alisertib + Palbociclib = compound: COc1cc(Nc2ncc3c(n2)-c2ccc(Cl)cc2C(c2c(F)cccc2OC)=NC3)ccc1C(=O)O [Alisertib] + CC(=O)c1c(C)c2cnc(Nc3ccc(N4CCNCC4)cn3)nc2n(C2CCCC2)c1=O [Palbociclib] (partner 0.5 µM)
Method in brief: as §1

Cell Line	relative viability (Alisertib + Dasatinib; first compound 0.005 µM)	relative viability (Alisertib + Dasatinib; first compound 0.01581 µM)	relative viability (Alisertib + Dasatinib; first compound 0.05 µM)	relative viability (Alisertib + Dasatinib; first compound 0.1581 µM)	relative viability (Alisertib + Dasatinib; first compound 0.5 µM)	relative viability (Alisertib + Alpelisib; first compound 0.005 µM)	relative viability (Alisertib + Alpelisib; first compound 0.01581 µM)	relative viability (Alisertib + Alpelisib; first compound 0.05 µM)	relative viability (Alisertib + Alpelisib; first compound 0.1581 µM)	relative viability (Alisertib + Alpelisib; first compound 0.5 µM)	relative viability (Alisertib + Bortezomib; first compound 0.005 µM)	relative viability (Alisertib + Bortezomib; first compound 0.01581 µM)	relative viability (Alisertib + Bortezomib; first compound 0.05 µM)	relative viability (Alisertib + Bortezomib; first compound 0.1581 µM)	relative viability (Alisertib + Bortezomib; first compound 0.5 µM)	relative viability (Alisertib + Palbociclib; first compound 0.005 µM)	relative viability (Alisertib + Palbociclib; first compound 0.01581 µM)	relative viability (Alisertib + Palbociclib; first compound 0.05 µM)	relative viability (Alisertib + Palbociclib; first compound 0.1581 µM)	relative viability (Alisertib + Palbociclib; first compound 0.5 µM)
NCI-H441	0.621	0.332	0.186	0.165	0.176	0.787	0.528	0.172	0.153	0.157	0.715	0.394	0.184	0.17	0.155	0.182	0.225	0.117	0.125	0.123
NCI-H1793	0.397	0.242	0.186	0.11	0.116	0.735	0.9	0.383	0.329	0.2	–	–	–	–	–	0.332	0.3	0.273	0.215	0.234
NCI-H23	0.67	0.661	0.301	0.173	0.198	0.819	0.462	0.228	0.173	0.157	0.875	0.39	0.272	0.158	0.164	0.476	0.442	0.319	0.205	0.203
HARA	0.265	0.283	0.279	0.125	0.0962	0.86	0.878	0.363	0.129	0.0864	1.06	1.11	0.651	0.191	0.108	0.288	0.242	0.243	0.161	0.147
NCI-H1792	0.727	0.732	0.413	0.252	0.162	0.678	0.606	0.246	0.0918	0.0744	0.935	0.871	0.555	0.21	0.0867	0.697	0.522	0.423	0.343	0.169
NCI-H1703	–	–	–	–	–	0.298	0.311	0.211	0.157	0.18	0.337	0.287	0.134	0.147	0.102	–	–	–	–	–
NCI-H2342	0.291	0.348	0.266	0.268	0.276	–	–	–	–	–	–	–	–	–	–	0.539	0.533	0.509	0.348	0.415
CAL-12T	0.275	0.158	0.0813	0.113	0.0899	1.19	0.382	0.217	0.249	0.183	0.768	0.489	0.296	0.221	0.201	0.327	0.259	0.188	0.138	0.172
NCI-H838	0.289	0.298	0.263	0.239	0.189	0.904	0.993	0.484	0.315	0.224	0.774	0.655	0.422	0.25	0.158	0.189	0.291	0.177	0.154	0.132
NCI-H2085	0.233	0.203	0.207	0.184	0.171	0.892	0.91	0.465	0.352	0.314	0.923	0.979	0.73	0.327	0.394	0.505	0.469	0.344	0.346	0.336
NCI-H1395	0.384	0.376	0.451	0.329	0.296	0.968	1.23	0.994	0.558	0.362	–	–	–	–	–	0.603	0.6	0.597	0.44	0.388
NCI-H1648	–	–	–	–	–	–	–	–	–	–	–	–	–	–	–	–	0.265	0.22	0.258	0.239
NCI-H460	0.455	0.485	0.198	0.036	0.0218	0.456	0.451	0.149	0.0179	0.0099	1.07	0.9	0.428	0.0287	0.0157	0.143	0.13	0.123	0.0185	0.0401
A549	–	–	–	–	–	0.531	0.333	0.144	0.059	0.0557	–	–	–	–	–	–	–	–	–	–
IA-LM	–	–	–	–	–	0.407	0.739	0.462	0.247	0.0598	0.635	0.578	0.465	0.195	0.0832	–	–	–	–	–
EKVX	0.541	0.47	0.243	0.244	0.229	0.819	0.811	0.49	0.215	0.185	0.967	0.8	0.391	0.185	0.169	0.386	0.431	0.27	0.183	0.176
ChaGo-K-1	0.488	0.6	0.277	0.165	0.162	–	–	–	–	–	0.88	0.696	0.322	0.276	0.232	0.817	0.686	0.219	0.203	0.166
NCI-H1755	0.382	0.467	0.356	0.221	0.0862	0.876	0.852	0.63	0.414	0.248	0.891	0.886	0.877	0.389	0.318	0.408	0.432	0.445	0.428	0.384
NCI-H2228	0.414	0.416	0.248	0.0768	0.1	0.781	0.499	0.256	0.133	0.193	0.809	0.827	0.406	0.142	0.134	0.641	0.689	0.378	0.118	0.125
NCI-H2087	0.776	0.628	0.137	0.113	0.123	0.939	0.816	0.226	0.203	0.171	0.88	0.702	0.186	0.172	0.199	0.226	0.271	0.154	0.11	0.109
